Where only a bound is given, the exact number is not on record here.

The source of these data is ChEMBL document CHEMBL1126496, “4-Aminomethyl chromans: dependence of serotonin and dopamine binding upon aromatic ring substitution” (Bioorg Med Chem Lett, 1993).

Experiment [1] deals with T1, 5-hydroxytryptamine receptor 1A (Homo sapiens, UniProt P08908).
T1 sequence (P08908 whole entry): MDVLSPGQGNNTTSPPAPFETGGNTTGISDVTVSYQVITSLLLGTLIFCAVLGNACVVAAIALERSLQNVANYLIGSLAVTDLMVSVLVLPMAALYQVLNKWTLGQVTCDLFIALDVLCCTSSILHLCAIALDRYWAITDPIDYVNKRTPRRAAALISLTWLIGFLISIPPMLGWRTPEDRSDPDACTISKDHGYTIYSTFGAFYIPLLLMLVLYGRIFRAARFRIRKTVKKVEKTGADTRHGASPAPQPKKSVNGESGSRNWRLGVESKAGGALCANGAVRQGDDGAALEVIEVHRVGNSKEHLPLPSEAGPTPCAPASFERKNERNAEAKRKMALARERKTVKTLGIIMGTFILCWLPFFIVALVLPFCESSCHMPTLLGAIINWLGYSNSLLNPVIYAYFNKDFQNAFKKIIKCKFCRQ
The experiment can be described thus: Compound was tested for its binding affinity against 5-hydroxytryptamine 1A receptor using [3H]8-OH-DPAT radioligand.

The target of experiment [2] is D(2) dopamine receptor (Rattus norvegicus, UniProt P61169). Description: Compound was tested for its binding affinity against Dopamine receptor D2 using [3H]raclopride radioligand.
Chain of D(2) dopamine receptor (P61169 whole entry): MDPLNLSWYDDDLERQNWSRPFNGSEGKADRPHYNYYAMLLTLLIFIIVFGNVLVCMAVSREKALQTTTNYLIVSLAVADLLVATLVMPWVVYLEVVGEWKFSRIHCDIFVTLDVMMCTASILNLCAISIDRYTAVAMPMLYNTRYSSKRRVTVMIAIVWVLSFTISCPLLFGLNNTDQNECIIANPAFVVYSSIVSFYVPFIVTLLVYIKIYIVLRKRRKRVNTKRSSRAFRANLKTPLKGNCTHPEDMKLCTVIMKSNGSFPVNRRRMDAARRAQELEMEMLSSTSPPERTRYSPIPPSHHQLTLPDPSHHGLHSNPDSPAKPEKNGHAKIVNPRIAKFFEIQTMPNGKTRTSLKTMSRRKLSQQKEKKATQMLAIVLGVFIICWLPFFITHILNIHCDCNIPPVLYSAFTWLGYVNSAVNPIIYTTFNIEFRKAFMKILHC

By Ki is commonly meant the dissociation constant of the complex between target and ligand, obtained from inhibition or displacement. Low values mean tighter binding, high ones weaker binding. `COc1cccc2c1C(CNCCCc1ccccc1)CCO2` (stereo unspecified): the Ki in experiment [1] is over 1000 nM; in experiment [2] it was 279 nM.
As for `COc1ccc2c(c1)OCCC2CNCCCc1ccccc1` (stereo unspecified), the Ki in experiment [1] was 28 nM; in experiment [2], over 1000 nM.
For `COc1ccc2c(c1)OCCC2CN1CCC2(CC1)C(=O)NCN2c1ccccc1` (stereo unspecified), in that order: 611 nM and 274 nM.
In the same order, the values of `COc1cccc2c1C(CN1CCC3(CC1)C(=O)NCN3c1ccccc1)CCO2` (stereo unspecified) are 12 nM and 29 nM.
For `COc1cccc2c1OCCC2CN1CCC2(CC1)C(=O)NCN2c1ccccc1` (stereo unspecified), in that order: over 1000 nM and over 1000 nM.
On to `COc1ccc2c(c1)C(CNCCCc1ccccc1)CCO2` (stereo unspecified), for which the values for the Ki in experiment [1] and in experiment [2] were 93 nM and over 1000 nM, respectively.
For `COc1ccc2c(c1)C(CN1CCC3(CC1)C(=O)NCN3c1ccccc1)CCO2` (stereo unspecified), in that order: 247 nM and 164 nM.
In the same order, the values of `COc1cccc2c1OCCC2CNCCCc1ccccc1` (stereo unspecified) are 7 nM and 620 nM.
